Experimental data from EP0068680A1, “Antibiotics” (BEECHAM GROUP PLC, priority 1981, dated 1983).
In brackets after ≈: the same amount, converted by molar mass. Read-outs that look alike come from different tables or passages of the source.

Legend:
M. gallisepticum S6 = assay: MIC against Mycoplasma in vitro (agar); type: cell-based; details: Friis broth solidified with 0.9% agarose, 6 days at 37°C
Staph. aureus W2827 = assay: MIC against Human Bacteria in vitro (agar dilution); type: cell-based; details: agar with 5% chocolated horse blood, 18 hours at 37°C
[1] = test system: M. suipneumoniae J2206/183^b; assay: MIC against Mycoplasma in vitro (agar); type: cell-based; details: Friis broth solidified with 0.9% agarose, 6 days at 37°C
[2] = test system: Staph. aureus 152 (pen. sens); assay: MIC against Veterinary Bacteria in vitro (agar dilution)
Procedure: (§1) The activity of the compounds of the Examples against various veterinarily important bacteria, was assayed in vitro using two-fold serial dilutions in Diagnostic Sensitivity Test Agar inoculated with 10^4 organisms.

Strep. uberis SPU1 = assay: as above
Procedure: as §1

[3] = test system: Strep. pyogenes R80/421-A; assay: MIC against Human Bacteria in vitro (agar dilution); type: cell-based; details: Streptococcus pyogenes, agar with 5% chocolated horse blood, 18 hours at 37°C
S. dublin S7 = assay: MIC against Veterinary Bacteria in vitro (agar dilution)
Procedure: as §1

Strep. pyogenes 64/848-C = assay: MIC against Human Bacteria in vitro (agar dilution); type: cell-based; details: Streptococcus pyogenes, agar with 5% chocolated horse blood, 18 hours at 37°C
M. suipneumoniae UCD 1 = assay: MIC against Mycoplasma in vitro (agar); type: cell-based; details: Friis broth solidified with 0.9% agarose, 6 days at 37°C
[4] = test system: Pasteurella multocida 1633; assay: MIC against Human Bacteria in vitro (agar dilution); type: cell-based; details: agar with 5% chocolated horse blood, 18 hours at 37°C
Past. haemolytica PA5 = assay: MIC against Veterinary Bacteria in vitro (agar dilution)
Procedure: as §1

E. coli E1 = assay: as above
Procedure: as §1

M. suipneumoniae NB12 = assay: MIC against Mycoplasma in vitro (agar); type: cell-based; details: Friis broth solidified with 0.9% agarose, 6 days at 37°C
[5] = test system: Haemophilus influenzae Wy21; assay: MIC against Human Bacteria in vitro (agar dilution); type: cell-based; details: agar with 5% chocolated horse blood, 18 hours at 37°C
[6] = test system: Corynebacterium pyogenes CY1; assay: MIC against Veterinary Bacteria in vitro (agar dilution); details: Diagnostic Sensitivity Test Agar, 18 hours at 37°C
Procedure: as §1

M. pneumoniae ATCC 15492 = assay: MIC against Mycoplasma in vitro (agar); type: cell-based; details: Friis broth solidified with 0.9% agarose, 6 days at 37°C
[7] = Mesomycoplasma hyopneumoniae, 144 h, read-out: MIC

Molecule `CC(=CC(=O)OCCCCC=CCCC(=O)O)CC1OCC(CC2OC2C(C)C(C)O)C(O)C1O` (stereo not drawn) [Example 1, pseudomonic acid D] has an MIC (M. gallisepticum S6; Mycoplasmoides gallisepticum, 144 h, read-out: MIC) greater than 10 µg/mL, an MIC (Staph. aureus W2827; Staphylococcus aureus, read-out: MIC) of 1 µg/mL (≈ 2.01 µM) and an MIC [1, 7] of 2.5 µg/mL (≈ 5.01 µM). The MIC ([2]; Staphylococcus aureus, 18 h) was 0.312 µg/mL (≈ 0.626 µM), the MIC (Strep. uberis SPU1; Streptococcus uberis, SPU1, 18 h) was 0.039 µg/mL (≈ 0.0782 µM) and the MIC [3] was 0.5 µg/mL (≈ 1 µM). The MIC (S. dublin S7; Salmonella enterica, S7, 18 h) was greater than 20 µg/mL, the MIC (Strep. pyogenes 64/848-C) was 0.25 µg/mL (≈ 0.501 µM) and the MIC (M. suipneumoniae UCD 1; Mesomycoplasma hyopneumoniae, UCD1, 144 h, read-out: MIC) was 5 µg/mL (≈ 10 µM). The MIC ([4]; read-out: MIC) was 0.25 µg/mL (≈ 0.501 µM), the MIC (Past. haemolytica PA5; Mannheimia haemolytica, PA5, 18 h) was 2.5 µg/mL (≈ 5.01 µM) and the MIC (E. coli E1; Escherichia coli, E1, 18 h) was greater than 20 µg/mL. For the same molecule, the MIC (M. suipneumoniae NB12; [7]) was 1 µg/mL (≈ 2.01 µM).
Methyl pseudomonate D [Example 2] gave an MIC (M. gallisepticum S6) greater than 10 µg/mL, an MIC (Staph. aureus W2827) of 1.0 µg/mL and an MIC [1] of 5.0 µg/mL. It also gave an MIC ([2]; Staph. aureus 152 (pen. sens), Diagnostic Sensitivity Test Agar, 18 hours at 37°C) of 0.625 µg/mL, an MIC (Strep. uberis SPU1; Strep. uberis SPU1, Diagnostic Sensitivity Test Agar, 18 hours at 37°C) of 5.0 µg/mL and an MIC (S. dublin S7; S. dublin S7, Diagnostic Sensitivity Test Agar, 18 hours at 37°C) of 80 µg/mL. It also gave an MIC (M. suipneumoniae UCD 1) of 5.0 µg/mL, an MIC [4] of 0.5 µg/mL and an MIC [5] of 0.1 µg/mL. It also gave an MIC [6] of 80 µg/mL, an MIC (M. pneumoniae ATCC 15492) greater than 10 µg/mL and an MIC (Past. haemolytica PA5; Past. haemolytica PA5, Diagnostic Sensitivity Test Agar, 18 hours at 37°C) of 1.25 µg/mL. For the same molecule, the MIC (E. coli E1; E. coli E1, Diagnostic Sensitivity Test Agar, 18 hours at 37°C) was 40 µg/mL and the MIC (M. suipneumoniae NB12) was 5.0 µg/mL.
